From patent publication US9862754B2, “Peptide analogs for treating diseases and disorders” (KeyBioscience AG, priority 2011, dated 2018) come the findings set out here.

Bridge positions count the residues as written; N and C are the ends. Ends that are not written are not given here.

The nature of assay [1]: Example 2: OGTT after 3 days of oral treatment in DIO rats. Format: in vivo, rat. To be noted: 0.5, 1 and 2 mg/kg p.o. b.i.d. 3 days prior to OGTT, cross-over, vs oral vehicle. As for the experimental part:
Drug administration were given by per oral (p.o.) gavage b.i.d. during the study period and as single dose in the morning prior to start of OGTT.
(§1) Animals were given 2 g/kg single dose dissolved in milliQ H20.
Following the initial (1st) OGTT, animals are randomized into treatment groups based on FBG and BW. Animals will be pre-treated 3 days (b.i.d.) prior to 2nd OGTT. Dosing will be performed in the morning (7-8 am) and afternoon (3-4 pm).
The study was performed in an x-over design with each animal being its own control.
(§2) OGTT Following Overnight Fasting (16 h):
Whole blood glucose levels were determined with an ACCU-CHEK® Avia blood glucose meter (Roche Diagnostics, Rotkreuz, Switzerland). […]
Statistical analysis was performed by one-way ANOVA followed by the Dunnett's post hoc test for multiple comparison. […] Incremental area under curve (iAUC) during OGTT was calculated by the trapezoidal method. […]
Three different doses of oral sCT/calcitonin mimetic 1 containing 0.5, 1 and 2 mg/kg compound were applied by gavage twice daily to 4 groups of rats for 3 days prior to OGTT. […] FIG. 7A and FIG. 7B show the effect of oral sCT versus oral UGP 302 at a first dosage on glucose tolerance during OGTT in DIO rats as measured in Example 2. FIG. 8A and FIG. 8B show the effect of oral sCT versus oral UGP 302 at a second dosage on glucose tolerance during OGTT in DIO rats as measured in Example 2.

Assay [2] is described as follows: Example 1: OGTT after 2 weeks of oral treatment in DIO rats. The assay is classed as in vivo, rat. To be noted: after 2 weeks of treatment, overnight fasting, 1 mg/kg p.o., vs oral vehicle. As for the experimental part: Drug administration by per oral (p.o.) gavage b.i.d. (7-8 am and 3-4 pm) during the study period and as single dose in the morning prior to start of OGTT.
as §1, §2
Blood sampling and glycemia were measured by heated tail venous puncture.
Whole blood glucose levels were determined with an ACCU-CHEK® Avia blood glucose meter (Roche Diagnostics, Rotkreuz, Switzerland). Blood (approx 300 ul) is collected in 1 ml MiniCollect K3EDTA plasma-tube (Greiner-Bio-One GmbH, Frickenhausen, Germany), inverted, and stored on ice. Tubes are centrifuged 3000×g (5000 rpm in table centrifuge) for 10 min at 4° C. and plasma obtained. Plasma samples are stored at −20° C. until analysis. A total of ˜2.5 ml blood is obtained during OGTT (˜0.3% of body weight).
Statistical analysis was performed by one-way ANOVA followed by the Dunnett's post hoc test for multiple comparison. Student's t-test was performed to compare two paired group. All analysis was performed using GRAPHPAD PRISM software (GraphPad Prism, San Diego, Calif. U.S.A). Incremental area under curve (iAUC) during OGTT was calculated by the trapezoidal method. A value of P<0.05 was considered to be significant. All data are presented as mean±standard error of the mean (SEM). […]

Consider “salmon calcitonin (CSNLSTCVLGKLSQELHKLQTYPRTNTGSGTP-NH2; disulfide 1-7; ends not checked) [sCT, reference compound]”, for which the “glucose iAUC during OGTT” value in assay [1] and in assay [2] was “significantly reduced glucose iAUC” each time.
